Experimental data reported in ChEMBL document CHEMBL1157004 (Bioorg Med Chem, 2009).
Active and inactive are the calls of the source. The rule behind the calls is not given here.

Experiments:
Rattus norvegicus [1] = assay: Antiamnesic activity against scopolamine-induced dementia in Wistar rat assessed as basal latency period to reach shock free zone at 0.5 mg/kg, po; assay type: functional
Rattus norvegicus [2] = assay: Antiamnesic activity against scopolamine-induced memory loss and learning impairment in Wistar rat assessed as transfer latency period to reach from open arm to closed arm ends measured on day 1 at 0.5 mg/kg, po by elevated plus maze test; assay type: functional
Rattus norvegicus [3] = assay: Cholinergic toxicity in po dosed Wistar rat assessed as occurrence of defecation after 1 week; assay type: organism-based; conditions: in vivo, 168 h
Rattus norvegicus [4] = assay: Antiamnesic activity against scopolamine-induced memory loss and learning impairment in Wistar rat at 0.5 mg/kg, po by Y maze test; assay type: functional, organism-based; set-up: dose 0.5 mg/kg
Rattus norvegicus [5] = assay: Antiamnesic activity against scopolamine-induced memory loss and learning impairment in Wistar rat assessed as transfer latency period to reach from open arm to closed arm ends measured on day 2 at 0.5 mg/kg, po by elevated plus maze test; assay type: functional
Rattus norvegicus [6] = assay: Toxicity in po dosed Wistar rat assessed as mortality within 1 week; assay type: organism-based; conditions: in vivo, 168 h
Rattus norvegicus [7] = assay: Antiamnesic activity against scopolamine-induced dementia in Wistar rat assessed as decrease in occurrence of mistakes at 0.5 mg/kg, po; assay type: functional, organism-based; set-up: dose 0.5 mg/kg
Rattus norvegicus [8] = assay: Antiamnesic activity against scopolamine-induced dementia in Wistar rat assessed as latency period to improve memory at 0.5 mg/kg, po; assay type: functional
Rattus norvegicus [9] = assay: Cholinergic toxicity in po dosed Wistar rat assessed as occurrence of salivation after 1 week; assay type: organism-based; conditions: in vivo, 168 h
[10] = target: T1, Muscarinic acetylcholine receptor M1 (Rattus norvegicus, UniProt P08482); assay: Displacement of [3H]QNB from muscarinic M1 receptor in Wistar rat brain cortex after 2 hrs by liquid scintillation counting
T1 sequence (P08482 whole entry): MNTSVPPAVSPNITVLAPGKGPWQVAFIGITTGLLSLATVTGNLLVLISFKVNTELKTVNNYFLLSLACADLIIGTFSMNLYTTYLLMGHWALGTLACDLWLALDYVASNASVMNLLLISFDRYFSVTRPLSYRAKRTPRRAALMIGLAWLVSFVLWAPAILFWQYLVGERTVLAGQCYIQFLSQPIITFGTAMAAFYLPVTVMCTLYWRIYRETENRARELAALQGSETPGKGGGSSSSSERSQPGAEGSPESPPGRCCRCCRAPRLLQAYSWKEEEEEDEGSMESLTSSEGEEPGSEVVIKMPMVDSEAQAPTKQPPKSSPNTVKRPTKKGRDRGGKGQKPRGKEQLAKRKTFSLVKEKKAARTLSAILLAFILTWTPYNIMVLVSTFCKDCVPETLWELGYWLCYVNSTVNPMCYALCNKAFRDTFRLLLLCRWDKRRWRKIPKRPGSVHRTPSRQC

[11] = target: T2, Muscarinic acetylcholine receptor M1 (Rattus norvegicus) (UniProt P08482); assay: Agonist activity at muscarinic M1 receptor in Wistar rat cerebral cortex assessed as [3H]myoinositol (1,4,5)-triphosphate level per gram of protein at 100 uM after 1 hr by liquid scintillation counting; assay type: functional, tissue-based
T2 sequence (whole entry): T1 sequence (P08482 whole entry)

| Structure (SMILES) | Time (Rattus norvegicus [1]) [s] | Time (Rattus norvegicus [2]) [s] | Activity (Rattus norvegicus [3]) | Activity (Rattus norvegicus [4]) | Time (Rattus norvegicus [5]) [s] | Activity (Rattus norvegicus [6]) | Activity (Rattus norvegicus [7]) | Time (Rattus norvegicus [8]) [s] | Activity (Rattus norvegicus [9]) | IC50 [10] [µM] | Ki [10] [µM] | Activity [11] [pmol] |
| --- | --- | --- | --- | --- | --- | --- | --- | --- | --- | --- | --- | --- |
| CN1CCC=C(C2CN(C(=O)c3ccc(Cl)cc3)CCO2)C1 (stereo unspecified) | 7 | 37 | Non-toxic | Active | 17 | Non-toxic | Active | 3 | Non-toxic | – | – | – |
| CN1CCC=C(C2CN(C(=O)c3ccccc3[N+](=O)[O-])CCO2)C1 (stereo unspecified) | 10 | 66 | Non-toxic | Active | 52 | Non-toxic | Active | 5 | Non-toxic | 618 | 126 | 0.65 |
| CN1CCC=C(C2CN(C(=O)c3cccc([N+](=O)[O-])c3)CCO2)C1 (stereo unspecified) | 10 | 64 | Non-toxic | Active | 47 | Non-toxic | Active | 4 | Non-toxic | – | – | – |
| Cc1ccc(C(=O)N2CCOC(C3=CCCN(C)C3)C2)cc1 (stereo unspecified) | 8 | 33 | Non-toxic | Active | 13 | Non-toxic | Active | 4 | Non-toxic | – | – | – |
| CN1CCC=C(C2CN(C(=O)c3ccc(C(C)(C)C)cc3)CCO2)C1 (stereo unspecified) | 11 | 65 | Non-toxic | Active | 53 | Non-toxic | Active | 6 | Non-toxic | – | – | – |
| CN1CCC=C(C2CN(C(=O)c3cc(Cl)ccc3Cl)CCO2)C1 (stereo unspecified) | 11 | 66 | Non-toxic | Active | 53 | Non-toxic | Active | 9 | Non-toxic | – | – | – |
| COC(=O)C1=CCCN(C)C1 [ARECOLINE] | 10 | 52 | – | Active | 36 | Non-toxic | – | 5 | – | – | – | – |
| CN1CCC=C(C2CN(C(=O)c3ccc([N+](=O)[O-])cc3)CCO2)C1 (stereo unspecified) | 10 | 64 | Non-toxic | Active | 52 | Non-toxic | Active | 5 | Non-toxic | – | – | – |
| CN1CCC=C(C2CN(C(=O)c3ccccc3)CCO2)C1 (stereo unspecified) | 10 | 53 | Non-toxic | Active | 35 | Non-toxic | Active | 6 | Non-toxic | – | – | – |
